# Reference: US9056091B1, “Composition for regulation of liver X receptor” (National Taiwan University, priority 2014, dated 2015)
# Legend:
# hLXRα = molecular target: T1, hLXRα (Homo sapiens, UniProt Q13133); experiment: LXRα transactivation activity, GAL4-hLXRα LBD / (UAS)4-alkaline phosphatase reporter, transient transfection in CHO-K1 cells; assay type: cell-based; set-up: key to Enhancing effect (LXRα): “—” indicates no significant effect; conditions: for LXRα transactivation activity, % of T0901317: co-treated with LXR agonist T0901317 (0.5 μM); for LXRα transactivation activity, % of T0901317 / LXRα transactivation activity: 48 hours; for Antagonistic effect (LXRα), ↓ percentage: against LXR agonist (T0901317); for LXRα transactivation activity: sample alone at 1, 5, and 10 μM, p>0.05 vs vehicle; for Enhancing effect (LXRα): sample alone, enhancing percentage relative to positive control
# T1 construct: expressed in transfected cells; host or cells: CHO-K1 (Chinese hamster ovary), transient transfection with pBKCMV GAL4-hLXRα
# T1 sequence (Q13133 209-447 limits assumed): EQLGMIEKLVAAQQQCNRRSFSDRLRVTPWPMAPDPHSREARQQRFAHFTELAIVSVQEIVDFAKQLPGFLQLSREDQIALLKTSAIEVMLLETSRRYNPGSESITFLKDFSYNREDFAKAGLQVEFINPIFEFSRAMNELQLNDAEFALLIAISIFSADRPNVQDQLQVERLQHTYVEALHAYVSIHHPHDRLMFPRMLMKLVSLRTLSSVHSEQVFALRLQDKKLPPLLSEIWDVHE
# Excerpt: (§1) For the evaluation of LXR transactivation activity, the embodiments of the present invention utilize transient transfection and the vectors used are: (1) pBKCMV GAL4-hLXRα and pBKCMV GAL4-hLXRβ; (2) pBKCMV (UAS)4-alkaline phosphatase, wherein pBKCMV GAL4-hLXRα and pBKCMV GAL4-hLXRβ are pBKCMV vectors having chimeric receptor of GAL4-hLXRα ligand binding doman (LBD) and GAL4-hLXRβ LBD, while pBKCMV (UAS)4-alkaline phosphatase is the pBKCMV vector having the reporter gene of (UAS)4 alkaline phosphatase (ALP). UAS indicates upstream activation sequence. All vectors were co-transfected into Chinese hamster ovary cell (CHO-K1, from Bioresource Collection and Research Center of Food Industry Research and Development Institute, BCRC: 6006).
# (§2) Transient transfection of the embodiments of the present invention was performed using Lipofectamin 2000 (Invitrogen). Firstly, after CHO-K1 cells were fully grown, cells were dis-attached by trpsin-EDTA solution and were eluted using 10% CSF-Ham's F-12, wherein CSF represents the FBS pretreated by charcoal (Dextran coated, Sigma, C6231). The cell suspension was diluted to 2.5×10^5 cells/mL, planted onto 96-well plate (100 μL/well), and incubated for 20 to 24 hours at 37° C. with 5% CO2.
# (§3) Detailed steps for transfection are as follow: Lipofectamine 2000 was diluted in PS tubes by serum-free OPTI-MEM®I (GIBCO, 31985) for 5 minutes at room temperature; the vector DNA was diluted by a small amount of serum-free OPTI-MEM®I; the vectors in Table 2 were mixed with Lipofectamine 2000 with specific ratio (GAL4-hLXRα:(UAS)4-ALP=4:1; GAL4-hLXRβ:(UAS)4-ALP=4:1) and reacted for 20 minutes at room temperature. During the reaction, the cells were washed by serum-free Ham's F-12 medium (100 μL/well) twice to allow the formation of DNA-liposome complex; the vectors were then added to the above washed cells for transfection to take place at 37° C. and 5% CO2. Solution for transfection was removed after the transient transfection was completed.
# Cells after transient transfection in Example 1 and removing the transfection solution were added to fucoxanthin and fucoxanthinol diluted with 10% TCM-Ham's F-12, LXR agonist T0901317, or none, to serve as experimental group, positive control, or vehicle, respectively. The ALP activities of all groups were analysis after incubation for 48 hours at 37° C. with 5% CO2.
# (§4) The ALP activity analysis was performed by reacting the culture medium (20 μL/well) and reactant (100 mM pNPP:H2O:2X SEAP assay buffer=1:9:10, 200 μL/well) in a new 96-well plate for 15 minutes at 37° C. The absorbance at 405 nm was measured using microspectrometer.
# hLXRβ = molecular target: T2, hLXRβ (Homo sapiens, UniProt P55055); experiment: LXRβ transactivation activity, GAL4-hLXRβ LBD / (UAS)4-alkaline phosphatase reporter, transient transfection in CHO-K1 cells; assay type: cell-based; conditions: for LXRβ transactivation activity, % of GW3965: co-treated with LXR agonist GW3965 (0.5 μM); for LXRβ transactivation activity, % of GW3965 / LXRβ transactivation activity, % of the positive control GW3965: 48 hours; for Antagonistic effect (LXRβ), ↓ percentage: against LXR agonist (GW3965); for Enhancing effect (LXRβ), ↑ percentage: sample alone, relative to positive control
# T2 construct: expressed in transfected cells; host or cells: CHO-K1 (Chinese hamster ovary), transient transfection with pBKCMV GAL4-hLXRβ
# T2 sequence (P55055 222-460 limits assumed): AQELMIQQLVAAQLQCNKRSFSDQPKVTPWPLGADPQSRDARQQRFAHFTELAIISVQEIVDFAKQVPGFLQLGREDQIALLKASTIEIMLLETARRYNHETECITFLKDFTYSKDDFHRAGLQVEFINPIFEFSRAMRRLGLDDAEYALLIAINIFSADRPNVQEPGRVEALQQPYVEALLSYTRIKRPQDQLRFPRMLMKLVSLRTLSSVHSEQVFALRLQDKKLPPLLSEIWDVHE
# Excerpt: as §1, §2, §3, §4
# Cells after the abovementioned transient transfection and removing the transfection solution were added to fucoxanthin and fucoxanthinol diluted with 10% TCM-Ham's F-12, LXR agonist GW3965 (3-[3-[[[2-Chloro-3-trifluoromethyl)-phenyl]methyl](2,2-diphenyl-ethyl)amino]-propoxy]benzeneacetic acid), or none, to serve as experimental group, positive control, or vehicle, respectively. The ALP activities of all groups were analysis after incubation for 48 hours at 37° C. with 5% CO2. Same method for ALP analysis applied as describe in Example 2.
Compound,"LXRα transactivation activity, % of T0901317 (hLXRα; 5 μM)","Antagonistic effect (LXRα), ↓ percentage (hLXRα; 10 μM)","LXRα transactivation activity, % of T0901317 (hLXRα; 10 μM)",LXRα transactivation activity (hLXRα),Enhancing effect (LXRα) (hLXRα),"LXRβ transactivation activity, % of GW3965 (hLXRβ; 5 μM)","Antagonistic effect (LXRβ), ↓ percentage (hLXRβ; 10 μM)","LXRβ transactivation activity, % of GW3965 (hLXRβ; 10 μM)","Enhancing effect (LXRβ), ↑ percentage (hLXRβ; 10 μM)","LXRβ transactivation activity, % of the positive control GW3965 (hLXRβ; sample alone at 10 μM)","LXRβ transactivation activity, % of GW3965 (hLXRβ; 1 μM)","Enhancing effect (LXRβ), ↑ percentage (hLXRβ; 1 μM)","LXRβ transactivation activity, % of the positive control GW3965 (hLXRβ; sample alone at 1 μM)","LXRβ transactivation activity, % of the positive control GW3965 (hLXRβ; sample alone at 5 μM)"
fucoxanthin,76%,↓59%,41%,no significant LXRα transactivation activities,—,69%,↓49%,51%,↑2%,approximately 2%,,,,
C\C(C=C=C1C(C)(C)C[C@H](O)C[C@@]1(C)O)=C/C=C/C(C)=C/C=C/C=C(C)/C=C/C=C(\C)C(=O)C[C@@]12O[C@]1(C)C[C@@H](O)CC2(C)C [fucoxanthinol],48%,↓80%,20%,no significant LXRα transactivation activities,—,62%,↓64%,36%,,,79%,↑3%,approximately 3%,approximately 2%
